Each structure is given as a SMILES string. The source made the active and inactive calls. No cut-off for these calls is given here.

As usually defined, the Ki is a measure of affinity in units of concentration, obtained from inhibition or displacement. A low value points to tighter binding. What is called IC50 is the midpoint of a concentration-inhibition curve. A low value points to higher potency.

Experiment [1] concerns the target Sigma non-opioid intracellular receptor 1 (Cavia porcellus, UniProt Q60492). The experiment in a line: Displacement of [3H]-pentazocine from sigma1 receptor in guinea pig brain membranes after 120 mins by liquid scintillation counting. The format is cell membranes, Membrane.
Experiment [2] has as its target T1, Sigma intracellular receptor 2 (Rattus norvegicus, UniProt Q5U3Y7).
T1 sequence (Q5U3Y7 whole entry): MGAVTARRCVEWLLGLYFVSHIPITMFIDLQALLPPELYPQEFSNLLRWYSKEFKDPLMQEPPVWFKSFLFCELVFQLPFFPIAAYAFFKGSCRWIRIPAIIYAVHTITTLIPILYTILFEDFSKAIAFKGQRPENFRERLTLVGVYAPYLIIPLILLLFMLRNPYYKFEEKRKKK
The experiment in a line: Displacement of [3H]-DTG from sigma2 receptor in rat liver membranes after 120 mins by liquid scintillation counting. It counts as cell membranes, Membrane.

Experiment [3] in a line: Displacement of [3H]-(+)-MK 801 from PCP binding site of NMDA receptor in pig brain cortex membranes after 120 mins by liquid scintillation spectrometry. The format is cell membranes, Sus scrofa.
Experiment [4] addresses C-8 sterol isomerase ERG2 (Saccharomyces cerevisiae S288c) (UniProt P32352). In words: Inhibition of yeast sterol-delta8/7-isomerase assessed as accumulation of cholesta-8-en-3beta-ol at 1 uM.
Experiment [5] shares this target. In words: Inhibition of yeast sterol-delta8/7-isomerase assessed as accumulation of cholesta-8,14-dien-3beta-ol at 1 uM.
The target is the same in experiment [6]. The experiment in a line: Inhibition of yeast sterol-delta8/7-isomerase assessed as accumulation of cholesta-7-en-3beta-ol at 1 uM.
The target is the same in experiment [7]. The experiment in a line: Inhibition of yeast sterol-delta8/7-isomerase assessed as accumulation of cholesta-5,7-dien-3beta-ol at 1 uM.
For experiment [8] the target is unchanged. In words: Inhibition of yeast sterol-delta8/7-isomerase assessed as accumulation of cholesta-8-en-3beta-ol at 50 uM.
Experiment [9] has the same target. In words: Inhibition of yeast sterol-delta8/7-isomerase assessed as accumulation of cholesta-8,14-dien-3beta-ol at 50 uM.
For experiment [10] the target is unchanged. The experiment in a line: Inhibition of yeast sterol-delta8/7-isomerase assessed as accumulation of cholesta-7-en-3beta-ol at 50 uM.
For experiment [11] the target is unchanged. The experiment in a line: Inhibition of yeast sterol-delta8/7-isomerase assessed as accumulation of cholesta-5,7-dien-3beta-ol at 50 uM.

C-8 sterol isomerase ERG2 (Saccharomyces cerevisiae S288c), sequence (P32352 whole entry, looked up): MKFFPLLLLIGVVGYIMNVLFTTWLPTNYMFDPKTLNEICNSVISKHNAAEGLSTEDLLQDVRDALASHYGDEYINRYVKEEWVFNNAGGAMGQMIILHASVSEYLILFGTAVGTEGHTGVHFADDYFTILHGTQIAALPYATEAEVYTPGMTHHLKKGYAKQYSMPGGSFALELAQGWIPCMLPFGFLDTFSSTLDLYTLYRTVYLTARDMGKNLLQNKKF
Sigma non-opioid intracellular receptor 1, sequence (Q60492 whole entry): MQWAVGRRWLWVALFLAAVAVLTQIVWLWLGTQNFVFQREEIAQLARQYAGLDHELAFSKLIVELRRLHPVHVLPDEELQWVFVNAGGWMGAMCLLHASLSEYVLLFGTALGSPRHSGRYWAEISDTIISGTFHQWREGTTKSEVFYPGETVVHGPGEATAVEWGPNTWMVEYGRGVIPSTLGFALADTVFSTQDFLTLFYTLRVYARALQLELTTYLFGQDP

`c1ccc(CCCN2CCCN(Cc3ccccc3)[C@@H](Cc3ccccc3)C2)cc1`: the Ki in experiment [1] stood at 73 nM; in experiment [2], 193 nM. In addition, the IC50 in experiment [3] is over 1000 nM. Also, the inhibition entry in experiment [4], in [5], in experiment [6] and in experiment [7] was “Active” throughout.

Regarding `CN1CCCN(Cc2ccccc2)[C@@H](Cc2ccccc2)C1`, the Ki in [1] was 448 nM; in experiment [2], over 1000 nM. This compound showed an IC50 in experiment [3] of over 1000 nM. For the same compound, the inhibition entry in [4], in experiment [8] and in [9] was “inactive” in each case. Besides, the inhibition entry in experiment [5], in experiment [6], in experiment [10], in [7] and in experiment [11] was “Active” each time.

In the case of `COc1ccc(CN2CCCN(Cc3ccccc3)[C@H](C)C2)cc1`, the Ki in experiment [1] turned out to be 0.51 nM; in [2], 431 nM. In addition, the half-inhibitory concentration (IC50) in experiment [3] was over 1000 nM.

`c1ccc(CCN2CCCN(Cc3ccccc3)[C@H](Cc3ccccc3)C2)cc1`: the Ki in experiment [1] was 52 nM; in experiment [2] it was over 1000 nM. This compound returned an IC50 in [3] of over 1000 nM. The inhibition result in [4], in experiment [5], in experiment [6] and in experiment [7] was “Active” throughout.

`c1ccc(C[C@H]2CNCCCN2Cc2ccccc2)cc1`: the Ki in experiment [1] is over 1000 nM; in experiment [2], over 10000 nM. Further, in [3], the IC50 is over 1000 nM. The inhibition entry in experiment [4], in experiment [5], in experiment [9], in experiment [6], in [10] and in experiment [7] was “Active” in each case. In addition, the inhibition entry in experiment [8] and in experiment [11] was “inactive” throughout.

For the compound `C[C@@H]1CN(CC2CCCCC2)CCCN1Cc1ccccc1`, the Ki in [1] amounted to 0.38 nM; in experiment [2], 7 nM. Moreover, the IC50 in experiment [3] was over 1000 nM. Further, the inhibition result in experiment [4], in [8], in [5] and in [9] was “inactive” in each case. Besides, the inhibition result in experiment [6], in experiment [10], in experiment [7] and in experiment [11] was “Active” in each case.

`COc1ccc(CN2CCCN(CC3CCCCC3)C[C@@H]2C)cc1`: the results for the Ki in experiment [1] and in experiment [2] were 1.1 nM and 19 nM, respectively. The same compound came in with an IC50 in [3] of over 1000 nM.

With `c1ccc(CCCCN2CCCN(Cc3ccccc3)[C@@H](Cc3ccccc3)C2)cc1`, the Ki was determined as 38 nM in [1] and 372 nM in experiment [2]. In experiment [3], this compound returned an IC50 of over 1000 nM. Also, the inhibition entry in experiment [4] is “inactive”. For the same compound, the inhibition entry in experiment [5], in experiment [6] and in [7] was “Active” in each case.

As for `C[C@H]1CN(CC2CCCCC2)CCCN1Cc1ccccc1`, the Ki was 0.22 nM in experiment [1] and 7.4 nM in experiment [2]. The compound further yielded an IC50 in experiment [3] of over 1000 nM. Besides, the inhibition entry in experiment [4], in experiment [8], in experiment [5] and in experiment [9] was “inactive” each time. Moreover, the inhibition result in experiment [6], in [10], in experiment [7] and in experiment [11] was “Active” each time.

Consider `CCCCN1CCCN(C)[C@H](Cc2ccccc2)C1`, for which the results for the Ki in [1] and in experiment [2] were 113 nM and 1000 nM, respectively. The same compound registered an IC50 in experiment [3] of over 1000 nM.

Consider `COc1ccc(CN2CCCN(Cc3ccccc3)[C@@H](Cc3ccccc3)C2)cc1`, for which the values for the Ki in experiment [1] and in experiment [2] were 29 nM and over 1000 nM, respectively. For the same compound, in [3], the IC50 is over 1000 nM. Besides, the inhibition entry in [4], in [5], in experiment [9], in experiment [10], in [7] and in [11] was “Active” in each case. Further, the inhibition entry in experiment [8] and in experiment [6] was “inactive” throughout.

Consider `c1ccc(CCCCN2CCCN(Cc3ccccc3)[C@H](Cc3ccccc3)C2)cc1`, for which the Ki in [1] came to 28 nM; in experiment [2] it was 423 nM. For the same compound, in [3], the IC50 was over 1000 nM. For the same compound, the inhibition entry in [4] and in experiment [5] was “inactive” in each case. In addition, the inhibition result in experiment [8], in [9], in experiment [6], in experiment [10], in [7] and in experiment [11] was “Active” throughout.

As for `CCCCN1CCCN(CCCC)[C@H](Cc2ccccc2)C1`, the Ki in experiment [1] was 21 nM; in experiment [2] it was over 1000 nM. For the same compound, in [3], the IC50 was over 1000 nM.

Turning to `CN1CCCN(Cc2ccccc2)[C@H](Cc2ccccc2)C1`, the Ki in experiment [1] is 280 nM; in experiment [2] it was over 1000 nM. Besides, in experiment [3], the IC50 is over 1000 nM. Also, the inhibition result in experiment [4] was “inactive”. Also, the inhibition result in experiment [8], in [5], in experiment [9], in [6], in experiment [10] and in experiment [7] was “Active” each time. The inhibition result in experiment [11] is “Active”.

As to `COc1ccc(CN2CCCN(Cc3ccccc3)[C@@H](C(C)C)C2)cc1`, the Ki is 20 nM in experiment [1] and over 1000 nM in experiment [2]. In experiment [3], this compound returned an IC50 of over 1000 nM. Besides, the inhibition result in experiment [4], in experiment [8], in experiment [5], in experiment [6], in [10] and in experiment [7] was “Active” each time. Besides, the inhibition result in [11] is “Active”. In addition, in experiment [9], the inhibition result was “inactive”.

Turning to `CCCCN1CCCN(CCCCc2ccccc2)[C@@H](Cc2ccccc2)C1`, the results for the Ki in experiment [1] and in [2] were 6.2 nM and over 1000 nM, respectively. The compound further gave an IC50 in [3] of over 1000 nM.

On to `CCCCN1CCCN(Cc2ccccc2)[C@@H](C)C1`, for which the Ki in experiment [1] worked out at 0.61 nM; in experiment [2], 276 nM. The compound also showed an IC50 in [3] of over 1000 nM. Further, the inhibition result in experiment [4], in experiment [5], in [6], in [10], in experiment [7] and in experiment [11] was “Active” each time. Besides, the inhibition result in [8] and in experiment [9] was “inactive” each time.

For `CCCCN1CCCN(CCCC)[C@@H](Cc2ccccc2)C1`, the Ki was determined as 18 nM in [1] and 278 nM in [2]. Further, the IC50 in experiment [3] was over 1000 nM.

Turning to `CCCCN1CCCN(C)[C@@H](Cc2ccccc2)C1`, the Ki in experiment [1] was 120 nM; in experiment [2] it was over 1000 nM. The compound further came in with an IC50 in experiment [3] of over 1000 nM.

As to `OCC(c1ccccc1)N1CCCN(Cc2ccccc2)[C@@H](Cc2ccccc2)C1` (some centres not stated), the Ki in experiment [1] was 228 nM; in [2], over 1000 nM. The same compound returned an IC50 in [3] of over 1000 nM.

For the compound `CC(C)=CCN1CCCN(Cc2ccccc2)[C@H](Cc2ccccc2)C1`, the inhibition constant (Ki) was 5 nM in [1] and 325 nM in [2]. In addition, in experiment [3], the IC50 was over 1000 nM. Further, the inhibition entry in experiment [4], in [8] and in experiment [5] was “inactive” in each case. The inhibition result in [9], in [6], in experiment [10], in experiment [7] and in experiment [11] was “Active” each time.

In experiment [1], `CCCCN1CCN(CCc2ccc(Cl)c(Cl)c2)CC1` registered a Ki of 0.55 nM. This counts as sub-nanomolar.

As for `CCCCN1CCCN(CCCCc2ccccc2)[C@H](Cc2ccccc2)C1`, the Ki in experiment [1] worked out at 13 nM; in [2], 942 nM. In addition, the IC50 in experiment [3] was over 1000 nM.

`OC(CN1CCCN(Cc2ccccc2)[C@@H](Cc2ccccc2)C1)c1ccccc1` (some centres not stated): the Ki in [1] turned out to be 234 nM; in experiment [2], 903 nM. Further, the IC50 in experiment [3] was over 1000 nM.

With `C[C@H]1CN(CCCCc2ccccc2)CCCN1Cc1ccccc1`, the inhibition constant Ki in experiment [1] turned out to be 0.77 nM; in experiment [2] it was 8.6 nM. For the same compound, the IC50 in [3] was over 1000 nM. The inhibition result in experiment [4], in [6] and in [7] was “Active” in each case. In experiment [5], the inhibition result was “inactive”.

As for `C[C@H]1CN(CC2CCCCC2)CCCN1Cc1ccc(Cl)cc1`, the Ki in experiment [1] was determined as 4.9 nM; in experiment [2], 51 nM. The compound also yielded an IC50 in [3] of over 1000 nM.

Values taken from ChEMBL document CHEMBL4043136, “Chiral-pool synthesis of 1,2,4-trisubstituted 1,4-diazepanes as novel σ1 receptor ligands” (Bioorg Med Chem, 2017).
